Measured values published in patent publication US10624895B2, “Methods of sensitizing a patient with glioma to a therapeutic agent by administering small hairpin RNA targeting PDZ-RHOGEF” (THE TRANSLATIONAL GENOMICS RESEARCH INSTITUTE, priority 2016, dated 2020).

Key:
microglia = conditions: by decreasing TROY expression; cited from earlier work
CNS-1 rat model = conditions: systemic PPF treatment; cited from earlier work
cleaved PARP = experiment: Immunoblot for cleaved PARP (TMZ-induced apoptosis); format: cell-based, human; conditions: T98G cells, PPF (5 μM) in combination with TMZ (250 μM), compared to TMZ alone
Method: (§1) FIGS. 26A, 26B, and 26C depict that PPF sensitizes GBM cells to TMZ and radiotherapy. FIG. 26A—A clonogenic assay was used to assess T98G and GBM43 cells survival after TMZ and radiation treatment. Cells were pre-treated with 5 μM PPF for 24 hours, and then either treated with 250 μM TMZ for 24 hours or exposed to 2 Gy radiation. Graph depicts the surviving fraction in the treated cells compared to vehicle (VC) treated or non-treated (NT) cells, **p<0.01. FIG. 26B—T98G glioma cells were treated with vehicle, PPF (5 μM) TMZ (250 μM) and PPF in combination with TMZ. TMZ-induced apoptosis was assayed by immunoblot analysis of cell lysates with an antibody to cleaved PARP. Immunoblotting for α-Tubulin was included as a loading control. FIG. 26C—T98G, GBM10, and GBM43 cells were treated with PPF ([…], and then immunoblotted to assess the activation of AKT and NF-κB. Immunoblotting for β-Actin is included as a loading control.
(§2) Referring now to FIGS. 26A, 26B, and 26C: Knockdown of TROY expression with shRNA decreases TMZ resistance in GBM cells in vitro (See Reference 42). […] Following combination therapy, cells were trypsinized, counted, and plated in a 6-well culture dish at densities of 100, 250, and 500 cells per well in triplicate. Cells were incubated for 12 days then fixed, stained with 0.5% crystal violet solution, and counted manually by blinded observers. […]

AKT = experiment: Immunoblot of AKT activation after PPF; format: cell-based, human; conditions: T98G and GBM43 cells treated with PPF
Method: as §1, §2

T98G cells = experiment: EGF-stimulated transwell migration assay; format: cell-based, human; conditions: serum starved T98G, PPF one hour prior to EGF (10 ng/mL), 24 hours
Method: FIG. 33 depicts the impact of PPF treatment on EGF-stimulated glioma cell migration. Serum starved T98G cells were treated with PPF at various concentrations one hour prior to EGF addition (10 ng/mL). Cell migration was assessed using the transwell migration assay after 24 hours. *p<0.001; **p<0.01.
Thus, the capacity of TROY to stimulate glioma cell invasion and increase TMZ and IR resistance could rely on the formation of a TROY-EGFR signaling complex. This association could activate, or potentiate, shared signaling pathways survival pathways as well as activate distinct TROY signaling pathways that mediate TROY receptor specific functional activities. Therefore, therapeutic approaches targeting TROY and/or both receptors may yield increased therapeutic benefit.

[1] = tested on: T98G, GBM10, and GBM43 cells; experiment: Lamellipodia formation and membrane ruffling (F-actin staining); format: cell-based, human; conditions: 5 μM PPF 1 hour prior to 10% FBS for 5 min
Method: FIGS. 28A and 28B depict that PPF suppresses GBM cell membrane ruffling. FIG. 28A—GBM43 cells were preincubated with 5 μM PPF or vehicle for 1 hour prior to 10% FBS stimulation for 5 min. After FBS stimulation, cells were fixed, permeabilized, and stained for F-actin. For each experimental condition, at least 12 images were taken randomly. Arrowhead indicates membrane ruffles. FIG. 28B—Graph depicts the average lamellipodia in T98G, GBM10, and GBM43 cells in the presence or absence of 10% FBS with or without 5 μM PPF as indicated. Lamellipodia were traced using Image J software.
Referring now to FIGS. 28A and 28B: The inventors investigated lamellipodia formation and membrane ruffling. Briefly, glioma cells were plated onto 10-well glass slides pre-coated with 10 μg/ml laminin at the density of 3000 cells/well for 24 hours at 37° C. Subsequently, cells were serum starved for 16 hours. The cells were pre-incubated with 5 μM PPF or vehicle for 1 hour prior to 10% FBS stimulation for 5 min. After FBS stimulation, cells were fixed in 4% PFA, permeabilized with 0.1% Triton X-100, and incubated with Alexa Fluor® 555 Phalloidin (Invitrogen) to stain for F-actin. Slides were mounted with ProLong® reagent with DAPI and imaged using a Zeiss LSM 510 microscope. For each experimental condition, at least 12 images were randomly taken. Lamellipodia were traced using ImageJ software.

For `CCCn1cnc2c1c(=O)n(CCCCC(C)=O)c(=O)n2C` [PPF, 3-methyl-1-(5-oxohexyl)-7-propyl-3,7-dihydro-1H-purine-2,6-dione], the migration of microglia (microglia) is given as “inhibit the migration of microglia”, the tumor growth (CNS-1 rat model) is given as “decreased tumor growth” and the “cleaved PARP” value (cleaved PARP) is given as “increase in cleaved PARP”. The AKT phosphorylation (AKT) was “effectively decreased”, the “EGF-stimulated glioma cell migration” value (T98G cells) was “reduced EGF-stimulated glioma cell migration” and the “lamellipodia formation and membrane ruffling” value [1] was “significantly decreased”.
